What all share (type): cell-based, human
Assay [1] deals with HT-29 colon adenocarcinoma cells. As to the kind of experiment: Antiproliferative activity (NCI procedure, sulforhodamine B), HT-29. Particulars: Homo sapiens, HT-29, unit inferred, tested 781 nM to 100 μM, 48 h. How it is done: (§1) The antiproliferative activity of compounds 3a-b, 4a-e, 5a-e and 6a-e was subsequently evaluated using the human HT-29 colon adenocarcinoma and the A549 adenocarcinoma alveolar epithelial cancer cell lines, the HaCaT spontaneously transformed aneuploid immortal keratinocyte cell line and the HDFn neonatal dermal fibroblast cell line (Table 2). Cell growth inhibition was assessed according to the NCI/NIH Developmental Therapeutics Program.
(§2) The antiproliferative activity assay of all compounds was assessed using the procedure recommended by the National Cancer Institute for its drug screening program with minor modifications. Briefly, 96-well microtiter plates were seeded with 75 μL of a suspension of either HaCaT (5×10^3), HT-29 (3.0×10^3), A549 (3.0×10^3) or HDFn (3×10^3) cells per well in DMEM and incubated for 24 h at 37° C. in a moisture-saturated atmosphere containing 5% CO2. Compounds freshly solubilized in DMSO (40 mM) were diluted in fresh DMEM, and 75 μL aliquots containing serially diluted concentrations of the compound were added. Final compound concentrations ranged from 100 μM to 781 nM. DMSO was maintained at a concentration of <0.5% (v/v) to avoid any related cytotoxicity. Plates were subsequently incubated for 48 h. Cell growth was then stopped by the addition of cold trichloroacetic acid to the wells (10% w/v, final concentration), followed by a 1 h incubation period at 4° C. The plates were washed 4-times with water. A sulforhodamine B solution (75 μL; 0.1% w/v) in acetic acid (1%) was subsequently added to each well and the plates incubated over a 15 min period while at room temperature. After staining, any unbound dye was removed by washing 4-times with an acetic acid solution (1%). Bound dye was solubilized in 20 mM Tris base and the absorbance was measured at an optimal wavelength (530-568 nm) using a μQuant® Universal microplate spectrophotometer (BioTek, Winooski, Vt.). The measurements for treated cells were compared with measurements from control cell plates fixed on treatment day and the percentage of cell growth inhibition was calculated for each drug. The experiments were performed at least twice in triplicate. The assays were considered valid when the coefficient of variation for a given set of conditions and within the same experiment was <10%.

For assay [2], the system named is HDFn neonatal dermal fibroblast cell line. As to the kind of experiment: Antiproliferative activity (NCI procedure, sulforhodamine B), HDFn. Particulars: Homo sapiens, Fibroblast, unit inferred, tested 781 nM to 100 μM, 48 h. How it is done: as §1, §2
Assay [3] deals with HaCaT keratinocyte cell line. As to the kind of experiment: Antiproliferative activity (NCI procedure, sulforhodamine B), HaCaT. Particulars: Homo sapiens, HaCaT, unit inferred, tested 781 nM to 100 μM, 48 h. As to the method: as §1, §2
Assay [4] deals with A549 adenocarcinoma alveolar epithelial cancer cells. Kind of assay: Antiproliferative activity (NCI procedure, sulforhodamine B), A549. Particulars: Homo sapiens, A549, unit inferred, tested 781 nM to 100 μM, 48 h. How it is done: as §1, §2

A value given as a limit tells only on which side of the number the result lay.

For orientation: IC50 means the concentration that inhibits the measured activity by half. High values mean weaker potency, low ones greater potency. For `CC(C)NC(=O)Nc1ccc(I)cc1` [Compound 1], the half-inhibitory concentration (IC50) was determined as 54.8 µM in assay [1] (Table 5), 83.6 µM in assay [2] (Table 5), 91.9 µM in assay [3] (Table 5) and 81.9 µM in assay [4] (Table 5).
For the compound `O=c1c(Nc2ccc(I)cc2)c(NC2CC2)c1=O` [Compound 70], the IC50 in assay [1] (Table 7), in assay [2] (Table 7), in assay [3] (Table 7) and in assay [4] (Table 7) was > 100 µM in each case.
For `O=c1c(NCC2CCC2)c(Nc2ccc(I)cc2)c1=O` [Compound 71], the IC50 in assay [1] (Table 7), in assay [2] (Table 7), in assay [3] (Table 7) and in assay [4] (Table 7) was > 100 µM in each case.
With `O=c1c(Nc2ccc(I)cc2)c(NC2CCCC2)c1=O` [Compound 72], the 50% inhibitory concentration (IC50) in assay [1] (Table 7) was determined as 10 µM; in assay [2] (Table 7), 6.9 µM; in assay [3] (Table 7) it was 10.6 µM; in assay [4] (Table 7), 8 µM.
On to `O=c1c(Nc2cccc(I)c2)c(NC2CC2)c1=O` [Compound 73], for which the 50% inhibitory concentration (IC50) stood at 39.8 µM in assay [1] (Table 7), 19.6 µM in assay [2] (Table 7), 37.7 µM in assay [3] (Table 7) and 26.8 µM in assay [4] (Table 7).
As to `O=c1c(NCC2CCC2)c(Nc2cccc(I)c2)c1=O` [Compound 74], the IC50 in assay [1] (Table 7) came out at 15 µM; in assay [2] (Table 7), 4.1 µM; in assay [3] (Table 7) it was 10.9 µM; in assay [4] (Table 7), 8.3 µM.
Regarding `O=c1c(Nc2cccc(I)c2)c(NC2CCCC2)c1=O` [Compound 75], the half-maximal inhibitory concentration (IC50) in assay [1] (Table 7) was found to be 15.2 µM; in assay [2] (Table 7), 4.6 µM; in assay [3] (Table 7), 11.8 µM; in assay [4] (Table 7) it was 9 µM.
`O=c1c(Nc2ccc(C3CCCCC3)cc2)c(NC2CC2)c1=O` [Compound 76]: the 50% inhibitory concentration (IC50) is > 100 µM in assay [1] (Table 7), > 100 µM in assay [2] (Table 7), > 100 µM in assay [3] (Table 7) and 74 µM in assay [4] (Table 7).
Turning to `O=c1c(NCC2CCC2)c(Nc2ccc(C3CCCCC3)cc2)c1=O` [Compound 77], the IC50 in assay [1] (Table 7) was > 100 µM; in assay [2] (Table 7), > 100 µM; in assay [3] (Table 7) it was > 100 µM; in assay [4] (Table 7) it was 89.6 µM.
Turning to `O=c1c(Nc2ccc(C3CCCCC3)cc2)c(NC2CCCC2)c1=O` [Compound 78], the concentration for half-maximal inhibition (IC50) in assay [1] (Table 7) is > 100 µM; in assay [2] (Table 7) it was > 100 µM; in assay [3] (Table 7), > 100 µM; in assay [4] (Table 7), 96.1 µM.
For the compound `O=c1c(Nc2cccc(C3CCCCC3)c2)c(NC2CC2)c1=O` [Compound 79], the IC50 was determined as 7.9 µM in assay [1] (Table 7), 4.3 µM in assay [2] (Table 7), 11 µM in assay [3] (Table 7) and 8 µM in assay [4] (Table 7).
Regarding `O=c1c(NCC2CCC2)c(Nc2cccc(C3CCCCC3)c2)c1=O` [Compound 80], the IC50 was 4.5 µM in assay [1] (Table 7), 1.9 µM in assay [2] (Table 7), 6 µM in assay [3] (Table 7) and 4.2 µM in assay [4] (Table 7).
In the same order, the values of `O=c1c(Nc2cccc(C3CCCCC3)c2)c(NC2CCCC2)c1=O` [Compound 81] are 4.3 µM, 1.9 µM, 5.6 µM and 3.7 µM.
Regarding `CC(C)(C)c1ccc(Nc2c(NC3CC3)c(=O)c2=O)cc1` [Compound 82], the half-maximal inhibitory concentration (IC50) amounted to 18.7 µM in assay [1] (Table 7), 13.2 µM in assay [2] (Table 7), 47.9 µM in assay [3] (Table 7) and 17.9 µM in assay [4] (Table 7).
For `CC(C)(C)c1ccc(Nc2c(NCC3CCC3)c(=O)c2=O)cc1` [Compound 83], the 50% inhibitory concentration (IC50) in assay [1] (Table 7), in assay [2] (Table 7), in assay [3] (Table 7) and in assay [4] (Table 7) was > 100 µM in each case.
For the compound `CC(C)(C)c1ccc(Nc2c(NC3CCCC3)c(=O)c2=O)cc1` [Compound 84], the IC50 is > 100 µM in assay [1] (Table 7), > 100 µM in assay [2] (Table 7), > 100 µM in assay [3] (Table 7) and 15.1 µM in assay [4] (Table 7).
Take `CC(C)(C)c1cccc(Nc2c(NC3CC3)c(=O)c2=O)c1` [Compound 85]: the IC50 in assay [1] (Table 7) is 64.1 µM; in assay [2] (Table 7), 57.3 µM; in assay [3] (Table 7), 81.4 µM; in assay [4] (Table 7), 40.8 µM.
In the same order, the values of `CC(C)(C)c1cccc(Nc2c(NCC3CCC3)c(=O)c2=O)c1` [Compound 86] are 14.8 µM, 3.8 µM, 56.1 µM and 13.7 µM.

For the origin of these results see patent US20210163404A1, “NOVEL UREA COMPOUNDS AND BIOISOSTERES THEREOF AND THEIR USE FOR TREATING INFLAMMATION AND INFLAMMATION-RELATED PATHOLOGIES” (UNIVERSITÉ LAVAL, priority 2017, published 2021).
